# Assay results as given in patent US6590071B1, “Reversible aqueous pH sensitive lipidizing reagents, compositions and methods of use” (University of Southern California, priority 1998, dated 2003).
# No end group written: not given here.
# Legend:
# [1] = tested on: hyperglycemic (diabetic) Sprague Dawley rats; assay: Blood glucose level in streptozotocin-induced diabetic rats after subcutaneous injection; type: in vivo, rat
# Method: Diabetes was induced in Sprague Dawley rats using i.v. injection of 60 mg/kg, streptozotocin. Solutions of 0.5 Unit/ml insulin or REAL-insulin in borate buffer (pH 10, 0.1M) were prepared. Rats were fasted 16 h prior to the experiment and were injected subcutaneously 0.5 Unit/kg of insulin or REAL-insulin. The blood glucose level of rats was monitored at different time points for 9 h. After this time rats were fed and the blood glucose level was measured after 15 h of feeding. The rats were again fasted and blood glucose level was measured after 16 h. The period of fasting and feeding was continued for 3 days.
# [2] = tested on: fasted diabetic rats; assay: Blood glucose level in fasted diabetic rats after oral administration; type: in vivo, rat; conditions: 10 U/kg oral, water/oil microemulsion, in 9 hours (FIG. 6)
# Method: The blood glucose level of rats was increased one week after inducing diabetes from an average of 100 mg/dl to 420 mg/dl (non-fasted rats). […] This is possibly due to the time required for REAL-insulin to be hydrolyzed and to release free insulin. After injection of insulin the fast blood glucose level of rats was back to original within 24 h. However, in the case of the rats treated with REAL-insulin, the drug effect on the fast blood glucose level lasted for 3 days (FIG. 5). Fasted diabetic rats were also administered by oral means 10 U/kg of insulin, REAL-insulin and placebo. Rats were fasted 16 h prior to oral administration. A water/oil microemulsion was used as the drug carrier.
# [3] = tested on: vasopressin deficient Brattleboro rats; assay: In vivo effect on urine output in vasopressin deficient Brattleboro rats; parameters: species or system rat; conditions: 5 μg/kg subcutaneous; for time after injection at which urine excretion was back to original: Brattleboro rats (FIG. 3); for delay in urine excretion: first 8 h (FIG. 2)
# Method: REAL-AVP was injected subcutaneously in animals (5 μg/kg) and urine was collected at different time points. […] AVP and Pal-AVP have similar effects with a delay in urine excretion of 4 h. A longer delay in urine excretion, up to 6 h, was observed after injection of REAL-AVP. […] The amount of urine excretion was back to original 24 h after injection of Pal-AVP and AVP. However, the effect of REAL-AVP lasted for 3 days (FIG. 3).
Compound,"time for fast blood glucose level to be back to original ([1]; 0.5 U/kg subcutaneous, diabetic rats (FIG. 5))","change in blood glucose level within the first hour ([1]; subcutaneous, fasted diabetic rats (FIG. 4))",reduction of the blood glucose level [2],time after injection at which urine excretion was back to original [3],delay in urine excretion ([3]; Brattleboro rats),effectiveness compared with REAL-AVP ([3]; Brattleboro rats)
insulin,≤ 24 h,significant drop,no significant reduction,–,–,–
"NC(=O)CC[C@@H]1NC(=O)[C@H](Cc2ccccc2)NC(=O)[C@H](Cc2ccc(O)cc2)NC(=O)[C@@H](N)CSSC[C@@H](C(=O)N2CCC[C@H]2C(=O)N[C@@H](CCCN=C(N)N)C(=O)NCC(N)=O)NC(=O)[C@H](CC(N)=O)NC1=O [AVP, Arginine vasopressin]",–,–,–,24 h,4 h,–
"Pal-AVP: Direct lipidization of AVP to palmitic acid (CYFQNCPRG; ends and bridges not checked; also: palmitoylated, position not given here; UniProt P01185 20-28, looked up)",–,–,–,24 h,4 h,not as effective as REAL-AVP
